Measured values as given in the NIST ThermoML archive (doi:10.1016/j.fluid.2015.05.009).
Numbers after ± are expanded uncertainties.

Assays:
[1] = for viscosity / mass density: 101.33 kPa, Liquid; for viscosity: Concentric cylinders viscometry; for mass density: Vibrating tube method; for surface tension liquid-gas: Pendant drop shape
[2] = refractive index (Na D-line) (dimensionless); details: 101.33 kPa, Liquid, Standard Abbe refractometry

CCCC[P+](C)(CCCC)CCCC.COS(=O)(=O)[O-] [tributylmethylphosphonium methyl sulfate]
Details | mass density, [1] [kg/m3] | refractive index, [2] | surface tension liquid-gas, [1] [mN/m] | viscosity, [1] [mPa·s]
283.15 K | 1076.5 ± 1 | 1.48038 ± 0.00051 | – | 6214.1 ± 410
288.15 K | 1073.4 ± 1 | 1.47891 ± 0.00051 | – | 3840.1 ± 230
293.15 K | 1070.3 ± 1 | 1.47742 ± 0.00051 | – | 2476.4 ± 130
293.2 K | – | – | 35.5 ± 0.5 | –
298.15 K | 1067.2 ± 1 | 1.47632 ± 0.00051 | – | 1629.2 ± 78
298.2 K | – | – | 34.7 ± 0.5 | –
303.15 K | 1064.1 ± 1 | 1.47427 ± 0.00051 | – | 1109.1 ± 48
303.2 K | – | – | 34.1 ± 0.5 | –
308.15 K | 1061 ± 1 | 1.47232 ± 0.00051 | – | 774.5 ± 30
313.1 K | – | – | 33.5 ± 0.5 | –
313.15 K | 1057.9 ± 1 | 1.47072 ± 0.00051 | – | 555 ± 19
318.15 K | 1054.8 ± 1 | 1.46912 ± 0.00051 | – | 403.6 ± 12
323.1 K | – | – | 32.9 ± 0.5 | –
323.15 K | 1051.8 ± 1 | 1.46758 ± 0.00051 | – | 300 ± 7.9
328.15 K | 1048.9 ± 1 | 1.46603 ± 0.00051 | – | 227 ± 5.2
333.1 K | – | – | 32.2 ± 0.5 | –
333.15 K | 1045.9 ± 1 | 1.46457 ± 0.00051 | – | 174.7 ± 3.5
338.15 K | 1043 ± 1 | 1.46318 ± 0.00051 | – | 136.3 ± 2.3
343.15 K | 1040.1 ± 1 | 1.46185 ± 0.00051 | – | 107.9 ± 1.6
348.15 K | 1037.3 ± 1 | 1.46067 ± 0.00051 | – | 86.4 ± 1.1
353.15 K | 1034.4 ± 1 | 1.45965 ± 0.00051 | – | 70 ± 0.8

CCCCCCCC[P+](CCCCCCCC)(CCCCCCCC)CCCCCCCC.[Br-] [tetraoctylphosphonium bromide]
Details | mass density, [1] [kg/m3] | refractive index, [2] | surface tension liquid-gas, [1] [mN/m] | viscosity, [1] [mPa·s]
318.1 K | – | – | 27.4 ± 0.4 | –
318.15 K | 945 ± 0.9 | 1.48262 ± 0.00051 | – | 376.5 ± 11
323.1 K | – | – | 27.1 ± 0.4 | –
323.15 K | 942 ± 0.9 | 1.48092 ± 0.00051 | – | 289.9 ± 7.5
328.15 K | 938.9 ± 0.9 | 1.47916 ± 0.00051 | – | 226.4 ± 5.2
333.1 K | – | – | 26.6 ± 0.4 | –
333.15 K | 935.9 ± 0.9 | 1.47699 ± 0.00051 | – | 178.7 ± 3.6
338.15 K | 932.9 ± 0.9 | 1.47523 ± 0.00051 | – | 142.1 ± 2.5
343.1 K | – | – | 26 ± 0.4 | –
343.15 K | 929.8 ± 0.9 | 1.47354 ± 0.00051 | – | 114.4 ± 1.7
348.15 K | 926.8 ± 0.9 | 1.47195 ± 0.00051 | – | 93.4 ± 1.2
353.15 K | 923.7 ± 0.8 | 1.47035 ± 0.00051 | – | 76.8 ± 0.9

CCCC[P+](CC)(CCCC)CCCC.CCOP(=O)([O-])OCC [tributylethylphosphonium diethylphosphate]
Details | mass density, [1] [kg/m3] | refractive index, [2] | surface tension liquid-gas, [1] [mN/m] | viscosity, [1] [mPa·s]
283.15 K | 1021.5 ± 0.9 | 1.47176 ± 0.00051 | – | 1018.4 ± 43
288.15 K | 1018 ± 0.9 | 1.46996 ± 0.00051 | – | 669.5 ± 24
293.15 K | 1014.4 ± 0.9 | 1.46809 ± 0.00051 | – | 466.4 ± 15
293.2 K | – | – | 31.4 ± 0.5 | –
298.15 K | 1010.9 ± 0.9 | 1.46618 ± 0.00051 | – | 316.8 ± 8.6
298.2 K | – | – | 30.5 ± 0.4 | –
303.15 K | 1007.5 ± 0.9 | 1.46474 ± 0.00051 | – | 226.7 ± 5.2
303.2 K | – | – | 29.8 ± 0.4 | –
308.15 K | 1004.1 ± 0.9 | 1.46308 ± 0.00051 | – | 166 ± 3.2
313.1 K | – | – | 29.2 ± 0.4 | –
313.15 K | 1000.7 ± 0.9 | 1.4611 ± 0.00051 | – | 124.7 ± 2
318.15 K | 997.6 ± 0.9 | 1.45923 ± 0.00051 | – | 94.6 ± 1.3
323.1 K | – | – | 28.5 ± 0.4 | –
323.15 K | 994.3 ± 0.9 | 1.45738 ± 0.00051 | – | 73.4 ± 0.8
328.15 K | 990.9 ± 0.9 | 1.45563 ± 0.00051 | – | 57.9 ± 0.6
333.1 K | – | – | 27.5 ± 0.4 | –
333.15 K | 987.6 ± 0.9 | 1.45385 ± 0.00051 | – | 46.4 ± 0.5
338.15 K | 984.3 ± 0.9 | 1.45212 ± 0.00051 | – | 37.5 ± 0.4
343.1 K | – | – | 31.4 ± 0.5 | –
343.15 K | 980.9 ± 0.9 | 1.45045 ± 0.00051 | – | 30.8 ± 0.3
348.15 K | 977.6 ± 0.9 | 1.4488 ± 0.00051 | – | 25.6 ± 0.3
353.15 K | 974.3 ± 0.9 | 1.44718 ± 0.00051 | – | 21.6 ± 0.2

CC(C)C[P+](C)(CC(C)C)CC(C)C.Cc1ccc(S(=O)(=O)[O-])cc1 [triisobutylmethylphosphonium p-toluenesulfonate]
Details | mass density, [1] [kg/m3] | refractive index, [2] | surface tension liquid-gas, [1] [mN/m] | viscosity, [1] [mPa·s]
283.15 K | 1082.4 ± 1 | 1.52489 ± 0.00051 | – | 21829 ± 1800
288.15 K | 1079.3 ± 1 | 1.52338 ± 0.00051 | – | 11305 ± 830
293.15 K | 1076.2 ± 1 | 1.5217 ± 0.00051 | – | 6231.9 ± 410
293.2 K | – | – | 38.1 ± 0.5 | –
298.15 K | 1073.2 ± 1 | 1.5203 ± 0.00051 | – | 3612.4 ± 210
298.2 K | – | – | 37.3 ± 0.5 | –
303.15 K | 1070.1 ± 1 | 1.51828 ± 0.00051 | – | 2199.9 ± 110
303.2 K | – | – | 36.6 ± 0.5 | –
308.15 K | 1067 ± 1 | 1.51635 ± 0.00051 | – | 1397.3 ± 64
313.1 K | – | – | 35.5 ± 0.5 | –
313.15 K | 1064 ± 1 | 1.51433 ± 0.00051 | – | 917.9 ± 37
318.15 K | 1060.9 ± 1 | 1.51233 ± 0.00051 | – | 623.7 ± 22
323.1 K | – | – | 35 ± 0.5 | –
323.15 K | 1057.7 ± 1 | 1.51055 ± 0.00051 | – | 436.2 ± 14
328.15 K | 1054.7 ± 1 | 1.50872 ± 0.00051 | – | 313.1 ± 8.4
333.1 K | – | – | 34.3 ± 0.5 | –
333.15 K | 1051.8 ± 1 | 1.50698 ± 0.00051 | – | 230.1 ± 5.3
338.15 K | 1048.8 ± 1 | 1.50537 ± 0.00051 | – | 172.7 ± 3.4
343.15 K | 1045.9 ± 1 | 1.50391 ± 0.00051 | – | 132.1 ± 2.2
348.15 K | 1043.1 ± 1 | 1.50252 ± 0.00051 | – | 102.8 ± 1.5
353.15 K | 1040.2 ± 1 | 1.50124 ± 0.00051 | – | 81.3 ± 1
